{"source": "patent US20230338545A1", "about": "(SYRACUSE UNIVERSITY, priority 2020, published 2023)", "key": {"[1]": {"details": "comparison value; cited from earlier work"}, "CaCo-2 cells": {"system": "CaCo-2 cells", "assay": "Cellular uptake of magnesium in CaCo-2 cells", "type": "cell-based, human", "details": "incubation time 1 hr, samples contain ~8% magnesium citrate"}}, "note": "Entries after “also recorded” stand apart in the source; their conditions may differ."}
{"molecule": "CCc1occc(=O)c1O", "note": "[ethylmaltol]", "values": [{"measurement": "water solubility of free ligand", "setting": "[1]", "result": 5.84, "unit": "g/100 mL"}]}
{"molecule": "Cc1occc(=O)c1O", "note": "[maltol, 3-HYDROXY-2-METHYL-4H-PYRAN-4-ONE]", "values": [{"measurement": "water solubility of free ligand", "setting": "[1]", "result": 1.2, "unit": "g/100 mL"}]}
{"molecule": "magnesium ethylmaltol [Complex 2]", "values": [{"measurement": "solubility", "setting": "Solubility in water; Example 3 product", "result": 26.8, "unit": "g/100 mL H2O"}, {"measurement": "solubility relative to that of the free ligand", "setting": "Solubility in water; complex vs. its ligand (maltol or ethylmaltol), water", "result": "approximately 4.9 ×"}, {"measurement": "solubility", "setting": "Solubility in water; triplicate independent runs", "result": "28.4±0.86 g per 100 mL of H2O"}, {"measurement": "cellular uptake of magnesium", "setting": "CaCo-2 cells", "result": "substantial uptake of magnesium; also recorded: slightly greater uptake than Complex 1; also recorded: confirmed cellular entry"}]}
{"molecule": "magnesium maltol [Complex 1]", "values": [{"measurement": "cellular uptake of magnesium", "setting": "CaCo-2 cells", "result": "substantial uptake of magnesium; also recorded: confirmed cellular entry"}]}
